Laboratory results from patent US20250115578A1, “AROMATIC FUSED RING NAV1.8 INHIBITOR, AND USE THEREOF” (CHENGDU KANGHONG PHARMACEUTICAL CO., LTD., priority 2022, published 2025).
In brackets after ≈: the same amount, converted by molar mass. Where two headings read alike, the source gives them in different places.

Legend:
hNav1.8 = hNav1.8 (Homo sapiens (Human), UniProt Q9Y5Y9); experiment: Manual patch clamp, Method 1 (CHO cell line stably expressing hNav1.8); format: cell-based; details: for inhibition at 0.01 µM / inhibition at 0.1 µM: read-out: Inhibition rate of hNav1.8; for inhibition at 0.1 µM: 100 nM; for IC50: Method 1, CHO-hNav1.8, manual patch clamp, resting state, read-out: IC50 inhibitory activity against hNav1.8
Text: The patch clamp technique is known as the “gold standard” for studying ion channels, and it uses glass microelectrodes to seal the cell membrane to measure the currents of various membrane channel. […] Patch clamp technology can evaluate the inhibition strength of different compounds on different states of Navs by measuring the changes of membrane channel currents after different compounds bind to different states of Navs.
The representative compounds of the present invention used stable CHO or HEK293 cell lines transfected with specific ion channels to measure the effect of the compounds on Nav1.8 currents by manual patch clamp test, to evaluate their inhibition strength.
The assay protocol of manual patch clamp is as follows:
CHO cell lines with stable expression of hNav1.8 were cultured in F12 medium containing 10% fetal bovine serum at a constant temperature of 37° C., and the carbon dioxide concentration was maintained at 5%. The old culture medium was removed and washed once with PBS, then 1 mL 0.25%-Trypsin-EDTA solution was added and incubated at 37° C. for 1 min. When the cells were detached from the bottom of the dish, 5 mL of the complete medium preheated at 37° C. was added, and the aggregated cells were separated by gently blowing with a straw. The cell suspension was transferred into a sterile centrifuge tube and centrifuged at 1000 rpm for 5 min to collect cells. The cells were then inoculated into a cell culture dish with a diameter of 6 cm (2.5×10^5 cells/petri dish, 5 mL medium) for expansion or maintenance.
In order to maintain the electrophysiological activity of the cells, the cell density must be less than 80%.
The cells were separated with 0.25%-Trypsin-EDTA before the assay, and 5×10^3 cells were seeded on a cover slip and cultured in a 24-well plate (final volume: 500 μL) for 18 h. Then the assay was conducted.
The compounds prepared in the examples of the present invention were dissolved in dimethyl sulfoxide (DMSO) and prepared into DMSO stock solution with a concentration of 10 mM for assay. And it was diluted to various concentrations with extracellular solution (140 mM NaCl, 3.5 mM KCl, 1 mM MgCl2, 2 mM CaCl2), 10 mM Glucose, 10 mM HEPES, 1.25 mM NaH2PO4, pH=7.4 regulated by NaOH), and the final concentration of DMSO in each compound sample was 0.10% or less.
A capillary glass pipette (BF150-86-10, Sutter Instruments) was pulled into a recording electrode with a micropipette puller (P97, Sutter Instruments). The micromanipulator (MP285, Sutter Instruments) was manipulated under an inverted microscope (IX71, Olympus) to make the recording electrode contact the cell and negative pressure suction was applied to achieve a GQ seal. Then, rapid capacitance compensation was performed, and negative pressure was continued, cell membrane was broken by suction, and whole cell recording mode was formed. Then the slow capacitance was compensated and the membrane capacitance and series resistance were recorded without leakage compensation. When the whole cell recording current was stabilized, dosing was initiated, and the next concentration was detected after acting 5 minutes of each drug concentration. Multiple cells were independently repeated during the recording period. All electrophysiological assays were performed at room temperature. Specifically, 6 concentrations (measuring IC50) or 2 concentrations (preliminary screening) were set for each compound, and the percentage of inhibition of sodium channels was determined by calculating the relative percentage of peak current generated before and after each concentration compound treated cells, and the IC50 value or percentage of inhibition at a specific concentration was calculated using IGOR pro software.

[1] = Stability assay for human liver microsomes in vitro; format: in vitro ADME; details: 1 μM compound, 0.5 mg/mL liver microsomes, read-out: Human liver microsome stability T1/2
Experimental: • Human liver microsomes, purchased from Corning or Xenotech, stored in a −80° C. refrigerator. • Nicotinamide adenine dinucleotide phosphate (NADPH), Chem-impex international, 00616 • Control compounds: testosterone, diclofenac, propafenone
• Water bath (HH-60, Guohua, Changzhou, China) • Pipette workstation (PP-550DS, Apricot, Covina, USA) • Centrifuge (5810R, Eppendorf, Hamburg, Germany) • Mass Spectrometer (Sciex API 4000, Singapore) • High Performance Liquid Chromatography (LC 20-AD, Shimadzu, Kyoto, Japan) • Sampler (ADDA, Apricot Designs, California, USA)
• Stock solution: 10 mM in DMSO • Working solution concentration preparation: 10 mM stock solution was diluted to 100 μM with 100% acetonitrile (organic phase content: 99% ACN, 1% DMSO)
Two 96-well incubation plates were named T60 incubation plate and NCF60 incubation plate.
445 μL microsomal working solution (liver microsomal protein concentration: 0.56 mg/mL) was added to the T60 and NCF60 incubation plates respectively, then the incubation plates above were placed in a water bath at 37° C. for pre-incubation approximately 10 minutes.
After the pre-incubation finished, 5 μL of the test compound working solution was added to the T60 and NCF60 incubation plates respectively, and mixed well. 50 μL potassium phosphate buffer was added to each well on the NCF60 incubation plate to start the reaction. 180 μL termination solution (acetonitrile solution containing 200 ng/mL tolbutamide and 200 ng/mL labetalol) and 6 uL working solution of NADPH regeneration system were added to the TO termination plate, and 54 μL samples were removed from the T60 incubation plate to the TO termination plate (TO sample generated). The reaction was initiated by adding 44 μL of NADPH regenerating system working solution per well on the T60 incubation plate. Only 54 μL microsomal working solution, 6 uL NADPH regeneration system working solution, and 180 μL termination solution were added to the Blank plate. Therefore, in the samples of the test or control compounds, the final reaction concentration of the compounds, testosterone, diclofenac and propafenone was 1 μM, the concentration of the liver microsomes was 0.5 mg/mL, and the final concentration of DMSO and acetonitrile in the reaction system was 0.01% (v/v) and 0.99% (v/v), respectively.
After incubation for an appropriate time (e.g. 5, 10, 20, 30, and 60 minutes), 180 μL of termination solution (acetonitrile solution containing 200 ng/mL tolbutamide and 200 ng/mL labetalol) was added to the sample hole of each termination plate, respectively. After that, 60 μL sample was removed from the T60 incubation plate to terminate the reaction.
All sample plates were shaken evenly and centrifuged at 3220×g for 20 min. Then 80 μL supernatant was taken from each well and diluted to 240 μL pure water for LC-MS/MS analysis.
All samples were injected for analysis.

[2] = Assay of kinetic solubility; format: physicochemical; details: aqueous buffer, kinetic from dmso stock, pH 3.5 phosphate buffer, 25° C.
Experimental: The stock solutions of the test compound and the standard progesterone were prepared in DMSO at the concentration of 10 mM.
30 μL of stock solutions at 10 mM of the test compounds and standard substance were placed in order into their proper 96-well plate. 970 μL phosphate buffer at the specified pH was added to the proper vial of the sample plate. The assay was performed in duplicate. A stirring stick was added to each vial and the teflon/silicone plug was capped. The sample tray was then placed in the Eppendorf Thermomixer Comfort and shaken at 1100 RPM at 25° C. for 2 hours. After 2 hours, plugs were removed, a big magnet was used to remove the stirring sticks, and samples were transferred from the sample plate to the filter plate. Vacuum pump was used to create negative pressure and filtered the samples. Transferred 5 μL of the filtrate to the new sample plate, then added 5 μL DMSO and 490 μL water/acetonitrile (V/V=1/1) to dilute the solvent. The dilution factor may be adjusted according to the solubility values of the substances to be tested or the strength of its LC-MS signal response.
From the 10 mM DMSO stock solution, 15 μL of that was transferred into the empty plate and 485 μL DMSO was added to prepare a 300 μM standard solution. From the 300 μM standard solution plate, 5 μL of that was transferred to another empty plate and 5 μL phosphate buffer at specified pH and 490 μL water/acetonitrile (V/V=1/1) dilution solvent were added to the standard solution to get a final concentration of 3 μM. The concentration of the standard solution may be adjusted according to the strength of its LC-MS signal response.
The sample plate was placed into the sample tray of the automatic sampler and the samples were evaluated by LC-MS/MS analysis.
All calculations were carried out by Microsoft Excel.
The sample filtrate was analyzed and quantified against a standard of known concentrations using LC-MS spectral peaks to identify and quantify. The solubility values of the control drug and the compounds to be tested were calculated as the following formula: • [Sample]: concentration of the sample • AREASample: peak area of the sample • INJ VOLStd: standard sample injection volume • DFSample: sample dilution factor • [STD]: standard substance concentration • AREAStd: peak area of standard substance • INJ VOLSample: sample injection volume

Human Nav1.8 ion channel = Human Nav1.8 ion channel (Homo sapiens (Human), UniProt Q9Y5Y9); experiment: Manual patch clamp, Method 2 (HEK293 cells stably expressing human Nav1.8, resting state); format: cell-based; details: Method 2, HEK293-hNav1.8, resting state, 1 μM TTX; read-out: IC50 inhibitory activity against hNav1.8

Chain of hNav1.8 (Q9Y5Y9 whole entry): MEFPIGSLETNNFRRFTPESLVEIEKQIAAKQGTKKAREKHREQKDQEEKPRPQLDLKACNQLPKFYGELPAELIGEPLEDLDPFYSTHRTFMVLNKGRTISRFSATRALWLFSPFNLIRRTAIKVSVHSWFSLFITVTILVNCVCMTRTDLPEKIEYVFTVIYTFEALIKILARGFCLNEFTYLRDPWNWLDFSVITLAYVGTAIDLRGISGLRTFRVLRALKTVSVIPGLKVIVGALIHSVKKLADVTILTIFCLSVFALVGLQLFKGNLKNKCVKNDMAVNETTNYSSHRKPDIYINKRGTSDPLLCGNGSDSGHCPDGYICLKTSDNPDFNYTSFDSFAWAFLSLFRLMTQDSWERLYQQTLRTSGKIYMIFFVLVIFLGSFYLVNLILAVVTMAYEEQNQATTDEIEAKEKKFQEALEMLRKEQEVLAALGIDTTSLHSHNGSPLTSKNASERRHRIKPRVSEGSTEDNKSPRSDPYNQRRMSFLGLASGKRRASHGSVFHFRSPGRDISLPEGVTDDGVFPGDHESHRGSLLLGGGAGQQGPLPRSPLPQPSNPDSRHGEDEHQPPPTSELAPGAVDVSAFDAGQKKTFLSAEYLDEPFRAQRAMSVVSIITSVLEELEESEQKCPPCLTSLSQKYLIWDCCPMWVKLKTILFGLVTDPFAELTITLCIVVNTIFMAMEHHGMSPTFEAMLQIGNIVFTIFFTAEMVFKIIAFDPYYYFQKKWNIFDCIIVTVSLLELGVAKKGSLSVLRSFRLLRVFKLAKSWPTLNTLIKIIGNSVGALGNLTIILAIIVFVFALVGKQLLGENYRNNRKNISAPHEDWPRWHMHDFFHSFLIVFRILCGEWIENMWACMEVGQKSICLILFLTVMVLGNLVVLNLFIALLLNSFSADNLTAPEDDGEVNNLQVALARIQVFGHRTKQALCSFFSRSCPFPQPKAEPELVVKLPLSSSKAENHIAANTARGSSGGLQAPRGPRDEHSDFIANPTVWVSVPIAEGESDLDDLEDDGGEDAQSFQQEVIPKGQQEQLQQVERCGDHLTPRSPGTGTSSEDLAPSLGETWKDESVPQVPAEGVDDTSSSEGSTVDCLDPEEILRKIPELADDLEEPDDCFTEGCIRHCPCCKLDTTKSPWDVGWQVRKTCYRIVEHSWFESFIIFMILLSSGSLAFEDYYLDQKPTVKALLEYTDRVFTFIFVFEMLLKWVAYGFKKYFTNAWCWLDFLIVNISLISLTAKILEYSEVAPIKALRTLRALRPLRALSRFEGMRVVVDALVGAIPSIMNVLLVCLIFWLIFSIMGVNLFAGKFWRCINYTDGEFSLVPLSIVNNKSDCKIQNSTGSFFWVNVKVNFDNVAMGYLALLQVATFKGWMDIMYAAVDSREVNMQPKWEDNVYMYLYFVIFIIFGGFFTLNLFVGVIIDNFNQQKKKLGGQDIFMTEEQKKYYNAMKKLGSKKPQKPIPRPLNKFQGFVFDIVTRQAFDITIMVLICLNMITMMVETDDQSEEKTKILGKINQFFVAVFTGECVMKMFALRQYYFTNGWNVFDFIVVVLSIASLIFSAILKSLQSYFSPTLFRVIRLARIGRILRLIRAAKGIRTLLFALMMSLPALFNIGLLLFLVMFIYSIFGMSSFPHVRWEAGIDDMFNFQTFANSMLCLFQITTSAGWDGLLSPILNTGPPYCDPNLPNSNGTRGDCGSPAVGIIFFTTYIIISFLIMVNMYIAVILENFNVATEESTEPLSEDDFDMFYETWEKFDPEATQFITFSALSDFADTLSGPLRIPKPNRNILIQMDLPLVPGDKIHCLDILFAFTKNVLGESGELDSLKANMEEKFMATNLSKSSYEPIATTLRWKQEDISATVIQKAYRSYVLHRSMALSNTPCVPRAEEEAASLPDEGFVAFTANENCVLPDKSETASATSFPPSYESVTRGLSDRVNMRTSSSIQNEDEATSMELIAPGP

| Compound | inhibition at 0.01 µM (hNav1.8; 10 nM, Method 1, CHO-hNav1.8) | inhibition at 0.1 µM (hNav1.8; Method 1, CHO-hNav1.8) | IC50 (hNav1.8) | half-life at 1 µM [1] | solubility kinetic at 2 h [2] | inhibition at 0.01 µM (hNav1.8; CHO) | IC50 (Human Nav1.8 ion channel) |
| --- | --- | --- | --- | --- | --- | --- | --- |
| NS(=O)(=O)c1cc(NC(=O)c2cc3cc(F)c(F)cc3nc2N2CCCC(F)(F)CC2)ccn1 [Example 17, 2-(4,4-difluoroazepan-1-yl)-6,7-difluoro-N-(2-sulfamoylpyridine-4-yl)quinoline-3-carboxamide] | 98.3% | 100% | 0.095 nM | > 2.42 h | – | – | – |
| NC(=O)c1cccc(NC(=O)c2nc3ccccc3nc2N2CCCC(F)(F)CC2)c1 [Example 07, N-(3-carbamoylphenyl)-3-(4,4-difluoroazepan-1-yl)quinoxaline-2-carboxamide] | 48.3% | – | 14.7 nM | 1.06 h | 52.7 µM (≈ 22.4 µg/mL) | – | – |
| NS(=O)(=O)c1cccc(NC(=O)c2cc3ccccc3nc2N2CCCC(F)(F)CC2)c1 [Example 13, 2-(4,4-difluoroazepan-1-yl)-N-(3-sulfamoylphenyl)quinoline-3-carboxamide] | 95.6% | 99.7% | – | – | 3.38 µM (≈ 1.56 µg/mL) | – | – |
| NC(=O)c1cc(NC(=O)c2cc3cc(F)c(F)cc3nc2N2CCCC(F)(F)CC2)ccc1F [Example 21, N-(3-carbamoyl-4-fluorophenyl)-2-(4,4-difluoroazepan-1-yl)-6,7-difluoroquinoline-3-carboxamide] | – | – | 0.36 nM | 0.943 h | – | – | – |
| NS(=O)(=O)c1cc(NC(=O)c2nc3ccccc3nc2N2CCCC(F)(F)CC2)ccn1 [Example 06, 3-(4,4-difluoroazepan-1-yl)-N-(2-sulfamoylpyridin-4-yl)quinoxaline-2-carboxamide] | – | – | 3.1 nM | > 2.42 h | 0.39 µM (≈ 0.18 µg/mL) | 77.6% | – |
| O=C(Nc1cc[nH]c(=O)c1)c1nc2ccccc2nc1N1CCCC(F)(F)CC1 [Example 03, 3-(4,4-difluoroazepan-1-yl)-N-(2-carbonyl-1,2-dihydropyridin-4-yl)quinoxaline-2-carboxamide] | 19.7% | 70% | – | 1.32 h | – | – | – |
| Cc1cc(F)ccc1Oc1cc(C(F)(F)F)ccc1C(=O)Nc1cc[nH]c(=O)c1 [Example 32, 2-(4-fluoro-2-methylphenoxy)-N-(2-carbonyl-1,2-dihydropyridin-4-yl)-4-(trifluoromethyl)benzamide, reference compound] | 38.1% | 84.7% | – | – | < 1.56 µM | – | – |
| CNS(=O)(=O)c1cc(NC(=O)c2cc3cc(F)c(F)cc3nc2N2CCCC(F)(F)CC2)ccn1 [Example 29, 2-(4,4-difluoroazepan-1-yl)-6,7-difluoro-N-(2-(N-methylsulfamoyl)pyridin-4-yl)quinoline-3-carboxamide] | – | 83.7% | – | – | < 1.56 µM | – | – |
| CS(=N)(=O)c1cc(NC(=O)c2cc3cc(F)c(F)cc3nc2N2CCCC(F)(F)CC2)ccn1 (stereo not drawn) [Example 27, 2-(4,4-difluoroazepan-1-yl)-6,7-difluoro-N-(2-(S-methylsulfonimidoyl)pyridin-4-yl)quinoline-3-carboxamide] | – | 97% | – | 2.26 h | 78.8 µM (≈ 39 µg/mL) | – | – |
| O=C(Nc1cn[nH]c(=O)c1)c1nc2ccccc2nc1N1CCCC(F)(F)CC1 [Example 04, 3-(4,4-difluoroazepan-1-yl)-N-(6-carbonyl-1,6-dihydropyridazin-4-yl)quinoxaline-2-carboxamide] | 3.33% | 46% | – | 1.33 h | – | – | – |
| O=C(Nc1ccc[n+]([O-])c1)c1nc2ccccc2nc1N1CCCC(F)(F)CC1 [Example 01] | 0.36% | 41.8% | – | > 2.42 h | – | – | – |
| Cc1ccc2cc(C(=O)Nc3ccnc(C(N)=O)c3)c(N3CCCC(F)(F)CC3)nc2c1 [Example 23, N-(2-carbamoylpyridin-4-yl)-2-(4,4-difluoroazepan-1-yl)-7-methylquinoline-3-carboxamide] | – | 97.2% | – | – | – | – | 1.5 nM |
